Source: ChEMBL document CHEMBL1136132, “Effect of structural modification on the inhibitory selectivity of rutaecarpine derivatives on human CYP1A1, CYP1A2, and CYP1B1” (Bioorg Med Chem Lett, 2003)

What was measured:
[1] = biological target: T1, Cytochrome P450 1A1 (Homo sapiens, UniProt P04798); experiment: Inhibition of Cytochrome P450 1A1 enzyme in bacterial membrane expressing human P450s; assay type: ADME, cell membranes
T1 sequence (P04798 whole entry): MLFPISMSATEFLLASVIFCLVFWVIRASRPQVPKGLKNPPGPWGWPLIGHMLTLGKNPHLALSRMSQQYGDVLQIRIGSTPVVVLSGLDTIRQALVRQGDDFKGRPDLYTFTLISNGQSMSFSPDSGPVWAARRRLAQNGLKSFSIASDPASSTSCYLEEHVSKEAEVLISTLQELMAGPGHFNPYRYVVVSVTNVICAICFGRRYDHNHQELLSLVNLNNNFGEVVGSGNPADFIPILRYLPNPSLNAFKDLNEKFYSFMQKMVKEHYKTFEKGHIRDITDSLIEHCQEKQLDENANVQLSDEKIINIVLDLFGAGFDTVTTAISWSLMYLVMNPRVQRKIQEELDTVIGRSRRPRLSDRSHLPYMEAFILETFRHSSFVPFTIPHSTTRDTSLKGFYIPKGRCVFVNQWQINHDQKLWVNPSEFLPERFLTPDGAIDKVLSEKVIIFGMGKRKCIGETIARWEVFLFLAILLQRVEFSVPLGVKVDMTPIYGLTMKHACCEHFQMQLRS

[2] = Ratio for inhibition of Cytochrome P450 1B1 to that of Cytochrome P450 1A2; assay type: ADME
[3] = biological target: T2, Cytochrome P450 1A2 (Homo sapiens, UniProt P05177); experiment: Inhibition of Cytochrome P450 1A2 enzyme in bacterial membrane expressing human P450s; assay type: ADME, cell membranes
T2 sequence (P05177 whole entry): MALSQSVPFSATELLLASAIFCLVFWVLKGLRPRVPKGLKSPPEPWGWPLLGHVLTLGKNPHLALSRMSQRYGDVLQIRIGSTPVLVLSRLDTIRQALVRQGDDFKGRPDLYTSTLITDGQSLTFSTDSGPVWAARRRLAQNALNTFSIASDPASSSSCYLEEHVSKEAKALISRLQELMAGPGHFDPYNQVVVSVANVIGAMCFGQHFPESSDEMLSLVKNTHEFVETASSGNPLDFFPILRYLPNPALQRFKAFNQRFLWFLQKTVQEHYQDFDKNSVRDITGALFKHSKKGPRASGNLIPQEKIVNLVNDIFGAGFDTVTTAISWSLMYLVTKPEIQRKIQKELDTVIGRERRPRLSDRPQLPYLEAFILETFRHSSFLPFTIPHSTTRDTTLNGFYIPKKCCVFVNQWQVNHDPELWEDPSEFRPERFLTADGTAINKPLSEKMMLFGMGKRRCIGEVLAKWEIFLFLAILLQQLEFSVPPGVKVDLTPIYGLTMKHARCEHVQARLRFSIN

[4] = Ratio for inhibition of Cytochrome P450 1A1 to that of Cytochrome P450 1A2; assay type: ADME
[5] = biological target: T3, Cytochrome P450 1B1 (Homo sapiens, UniProt Q16678); experiment: Inhibition of Cytochrome P450 1B1 enzyme in bacterial membrane expressing human P450s; assay type: ADME, cell membranes
T3 sequence (Q16678 whole entry): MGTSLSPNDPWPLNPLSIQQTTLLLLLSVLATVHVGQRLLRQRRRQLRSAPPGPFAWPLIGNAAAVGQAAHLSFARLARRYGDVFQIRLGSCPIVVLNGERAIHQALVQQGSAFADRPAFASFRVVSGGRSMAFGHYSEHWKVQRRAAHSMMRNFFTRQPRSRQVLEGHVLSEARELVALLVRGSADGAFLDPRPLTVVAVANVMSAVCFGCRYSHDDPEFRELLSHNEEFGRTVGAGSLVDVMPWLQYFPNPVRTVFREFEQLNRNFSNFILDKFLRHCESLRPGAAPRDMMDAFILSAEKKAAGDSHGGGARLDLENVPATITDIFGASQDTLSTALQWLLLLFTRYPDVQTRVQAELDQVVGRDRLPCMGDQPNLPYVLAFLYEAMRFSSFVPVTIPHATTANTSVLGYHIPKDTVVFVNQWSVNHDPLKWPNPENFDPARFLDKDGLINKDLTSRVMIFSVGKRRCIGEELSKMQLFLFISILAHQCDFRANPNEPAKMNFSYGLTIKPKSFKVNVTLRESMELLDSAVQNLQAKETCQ

[6] = biological target: T3, Cytochrome P450 1B1; experiment: Inhibition of human Cytochrome P450 1B1 expressed in bacterial membrane; assay type: ADME, cell membranes

COc1ccc2c3c([nH]c2c1)-c1nc2ccccc2c(=O)n1CC3
IC50 [1]: 2000 nM | ratio [2]: 0.06 | IC50 [3]: 1980 nM | ratio [4]: 1 | IC50 [5]: 110 nM

COc1ccc2c(=O)n3c(nc2c1)-c1[nH]c2ccccc2c1CC3
IC50 [1]: 850 nM | ratio [2]: 2 | IC50 [3]: 76 nM | ratio [4]: 11 | IC50 [5]: 170 nM

COc1ccc2nc3n(c(=O)c2c1)CCc1c-3[nH]c2ccccc12
IC50 [1]: 1280 nM | ratio [2]: 0.5 | IC50 [3]: 280 nM | ratio [4]: 5 | IC50 [5]: 140 nM

COc1cccc2c(=O)n3c(nc12)-c1[nH]c2ccccc2c1CC3
IC50 [1]: 450 nM | ratio [2]: 7 | IC50 [3]: 11 nM | ratio [4]: 45 | IC50 [5]: 71 nM

COc1cc(OC)c2nc3n(c(=O)c2c1)CCc1c-3[nH]c2ccccc12
IC50 [1]: 420 nM | ratio [2]: 2 | IC50 [3]: 41 nM | ratio [4]: 11 | IC50 [5]: 80 nM

COc1cc2nc3n(c(=O)c2cc1OC)CCc1c-3[nH]c2ccccc12
IC50 [1]: 1580 nM | ratio [2]: < 0.0003 | IC50 [3]: > 500000 nM | ratio [4]: < 0.003 | IC50 [5]: 160 nM

Oc1c2ccccc2nc2c3nc4ccccc4c-3ccn12
IC50 [3]: 30 nM

O=c1c2cc(Cl)ccc2nc2n1CCc1c-2[nH]c2ccccc12
IC50 [1]: 1920 nM | ratio [2]: 3 | IC50 [3]: 29 nM | ratio [4]: 64 | IC50 [5]: 90 nM

COc1ccc2c(=O)n3c(nc2c1OC)-c1[nH]c2ccccc2c1CC3
IC50 [1]: 970 nM | ratio [2]: 8 | IC50 [3]: 29 nM | ratio [4]: 33 | IC50 [5]: 2400 nM

COc1ccc2[nH]c3c(c2c1)CCn1c-3nc2ccccc2c1=O
IC50 [1]: 1780 nM | IC50 [6]: 84 nM | ratio [2]: 0.03 | IC50 [3]: 2920 nM | ratio [4]: 0.6

O=c1c2cc(Br)ccc2nc2n1CCc1c-2[nH]c2ccccc12
IC50 [1]: 2470 nM | ratio [2]: 0.8 | IC50 [3]: 1500 nM | ratio [4]: 16 | IC50 [5]: 120 nM

COc1ccc2nc3n(c(=O)c2c1OC)CCc1c-3[nH]c2ccccc12
IC50 [1]: 870 nM | ratio [2]: 0.08 | IC50 [3]: 1730 nM | ratio [4]: 0.5 | IC50 [5]: 140 nM

O=c1c2ccc(Cl)cc2nc2n1CCc1c-2[nH]c2ccccc12
IC50 [1]: 1200 nM | ratio [2]: 1 | IC50 [3]: 39 nM | ratio [4]: 30 | IC50 [5]: 37 nM

C[n+]1c2n(c(=O)c3ccccc31)CCc1c-2[nH]c2ccccc12 [DEHYDROEVODIAMINE]
IC50 [1]: 18000 nM | ratio [2]: 0.06 | IC50 [3]: 5630 nM | ratio [4]: 3 | IC50 [5]: 330 nM

CN1c2ccccc2C(=O)N2CCc3c([nH]c4ccccc34)[C@H]21 [EVODIAMINE]
IC50 [1]: 24600 nM | IC50 [3]: 16300 nM | IC50 [5]: 690 nM

CN1c2ccccc2C(=O)N2CCc3c([nH]c4ccccc34)[C@@H]21 [EVODIAMINE]
ratio [2]: 0.04 | ratio [4]: 2

O=c1c2ccccc2nc2n1CCc1c-2[nH]c2ccccc12 [RUTAECARPINE]
IC50 [1]: 260 nM | ratio [2]: 3 | IC50 [3]: 22 nM | ratio [4]: 13 | IC50 [5]: 55 nM
